Laboratory results published in ChEMBL document CHEMBL5653627 (J Neurochem, 2017).
Calls of active or inactive are those of the source. The calls are words filed in the database; no cut-off is given here.

Tests used:
SMA-497 [1] = experiment: Induction of apoptosis in mouse SMA-497 cells assessed as early apoptotic cells at 0.1 uM incubated for 72 hrs by Annexin V-FITC/PI staining based flow cytometric analysis (reference value: 0.015%); format: functional
Mus musculus = experiment: In vivo inhibition of Angiopoietin-1 stimulated TIE2 autophosphorylation in lungs of CB17/scid mouse at 25 to 100 mg/kg,po for 3 hrs with angiopoietin-1 stimulation during last 15 mins treatment by immunoblot analysis; format: functional, organism-based; conditions: Lung, dose 25-100 mg/kg
SMA-560 [2] = experiment: Anti-clonogenicic activity in mouse SMA-560 cells assessed as reduction in colony formation at 0.001 to 10 uM and measured after 10 days by MTT based clonogenic survival assay; format: functional, cell-based; conditions: dose 0.001-10 µM, time 10.0 day
SMA-560 [3] = experiment: Induction of cell cycle arrest in mouse SMA-560 cells assessed as accumulation at G2/M phase at 0.1 uM incubated for 72 hrs by propidium iodide/RNase staining based flow cytomtery (Rvb= 25%); format: functional
[4] = molecular target: Epithelial discoidin domain-containing receptor 1 (Homo sapiens, UniProt Q08345); experiment: Binding affinity to DDR1 (unknown origin) assessed as dissociation constant by KINOME scan assay
Epithelial discoidin domain-containing receptor 1, sequence (Q08345 whole entry, the tested form may be a part): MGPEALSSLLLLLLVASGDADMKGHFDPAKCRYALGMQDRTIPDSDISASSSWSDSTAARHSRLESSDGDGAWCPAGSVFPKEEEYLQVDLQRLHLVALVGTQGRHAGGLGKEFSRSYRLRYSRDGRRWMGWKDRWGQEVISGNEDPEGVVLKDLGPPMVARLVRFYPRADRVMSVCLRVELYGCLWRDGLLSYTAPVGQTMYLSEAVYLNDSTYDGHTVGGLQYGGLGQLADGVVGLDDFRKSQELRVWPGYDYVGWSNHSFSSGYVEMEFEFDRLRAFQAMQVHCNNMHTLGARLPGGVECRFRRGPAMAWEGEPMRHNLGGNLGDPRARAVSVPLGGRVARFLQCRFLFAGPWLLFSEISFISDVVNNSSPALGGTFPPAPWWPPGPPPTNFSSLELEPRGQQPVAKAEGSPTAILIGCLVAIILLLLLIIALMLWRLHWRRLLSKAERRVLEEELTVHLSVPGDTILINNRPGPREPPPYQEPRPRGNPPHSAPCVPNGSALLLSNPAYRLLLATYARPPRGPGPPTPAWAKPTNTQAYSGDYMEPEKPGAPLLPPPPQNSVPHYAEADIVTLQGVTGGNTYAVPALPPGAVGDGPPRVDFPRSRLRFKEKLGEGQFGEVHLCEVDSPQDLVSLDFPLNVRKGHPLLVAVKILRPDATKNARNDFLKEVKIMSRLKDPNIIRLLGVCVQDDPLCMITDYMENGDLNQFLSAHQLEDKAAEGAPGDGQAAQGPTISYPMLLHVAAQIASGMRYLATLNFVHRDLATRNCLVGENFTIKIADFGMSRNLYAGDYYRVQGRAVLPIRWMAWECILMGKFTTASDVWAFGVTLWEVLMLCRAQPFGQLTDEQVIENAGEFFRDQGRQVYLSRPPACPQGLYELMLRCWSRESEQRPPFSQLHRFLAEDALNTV

SMA-497 [5] = experiment: Antitumor activity against mouse SMA-497 cells xenografted in VM/Dk mouse assessed as decrease in number of CD31-positive intra-tumoral vessels in tumor at 100 mg/kg,po daily with 12 Gy irradition after 2days of treatment initiation by immunohistochemistry analysis; format: functional, organism-based
GL261 [6] = experiment: Antitumor activity against mouse GL261 cells xenografted in C57Bl/6 mouse assessed as tumor cell proliferation at 100 mg/kg,po daily by Ki67 staining based immunohistochemistry analysis; format: functional, organism-based
SMA-497 [7] = experiment: Induction of cell cycle arrest in mouse SMA-497 cells assessed as accumulation at G2/M phase at 0.1 uM incubated for 72 hrs by propidium iodide/RNase staining based flow cytomtery (Rvb= 14%); format: functional
GL261 [8] = experiment: Antitumor activity against mouse GL261 cells xenografted in C57Bl/6 mouse assessed as decrease in number of CD31-positive intra-tumoral vessels in tumor at 100 mg/kg,po daily by immunohistochemistry analysis; format: functional, organism-based
SMA-540 = experiment: In vivo inhibition of TIE-2 in VM/Dk mouse xenografted with mouse SMA-540 cells assessed as decrease in TIE-2 expression in brain blood vessels at 100 mg/kg,po daily by immunohistochemistry analysis; format: functional, organism-based
SMA-560 [9] = experiment: Antitumor activity against mouse SMA-560 cells xenografted in VM/Dk mouse assessed as decrease in number of CD31-positive intra-tumoral vessels in tumor at 100 mg/kg,po daily by immunohistochemistry analysis; format: functional, organism-based
SMA-560 [10] = experiment: Antitumor activity against mouse SMA-560 cells xenografted in VM/Dk mouse assessed as decrease in tumor volume at 100 mg/kg,po daily by H and E staining based microscopy; format: functional, organism-based
SMA-560 [11] = experiment: Anti-clonogenicic activity in mouse SMA-560 cells assessed as reduction in colony formation at 0.1 to 1 uM preincubated for 6 hrs followed by temozolomide addition and measured after 10 days by MTT based clonogenic survival assay; format: functional, cell-based; conditions: dose 0.1-1 µM, time 246.0 hrs
Angiopoietin-1 receptor = Angiopoietin-1 receptor (Homo sapiens, UniProt Q02763); experiment: Inhibition of TIE2 autophosphorylation in human HUVEC cells by Western blot analysis; format: cell-based
Angiopoietin-1 receptor, sequence (Q02763 whole entry): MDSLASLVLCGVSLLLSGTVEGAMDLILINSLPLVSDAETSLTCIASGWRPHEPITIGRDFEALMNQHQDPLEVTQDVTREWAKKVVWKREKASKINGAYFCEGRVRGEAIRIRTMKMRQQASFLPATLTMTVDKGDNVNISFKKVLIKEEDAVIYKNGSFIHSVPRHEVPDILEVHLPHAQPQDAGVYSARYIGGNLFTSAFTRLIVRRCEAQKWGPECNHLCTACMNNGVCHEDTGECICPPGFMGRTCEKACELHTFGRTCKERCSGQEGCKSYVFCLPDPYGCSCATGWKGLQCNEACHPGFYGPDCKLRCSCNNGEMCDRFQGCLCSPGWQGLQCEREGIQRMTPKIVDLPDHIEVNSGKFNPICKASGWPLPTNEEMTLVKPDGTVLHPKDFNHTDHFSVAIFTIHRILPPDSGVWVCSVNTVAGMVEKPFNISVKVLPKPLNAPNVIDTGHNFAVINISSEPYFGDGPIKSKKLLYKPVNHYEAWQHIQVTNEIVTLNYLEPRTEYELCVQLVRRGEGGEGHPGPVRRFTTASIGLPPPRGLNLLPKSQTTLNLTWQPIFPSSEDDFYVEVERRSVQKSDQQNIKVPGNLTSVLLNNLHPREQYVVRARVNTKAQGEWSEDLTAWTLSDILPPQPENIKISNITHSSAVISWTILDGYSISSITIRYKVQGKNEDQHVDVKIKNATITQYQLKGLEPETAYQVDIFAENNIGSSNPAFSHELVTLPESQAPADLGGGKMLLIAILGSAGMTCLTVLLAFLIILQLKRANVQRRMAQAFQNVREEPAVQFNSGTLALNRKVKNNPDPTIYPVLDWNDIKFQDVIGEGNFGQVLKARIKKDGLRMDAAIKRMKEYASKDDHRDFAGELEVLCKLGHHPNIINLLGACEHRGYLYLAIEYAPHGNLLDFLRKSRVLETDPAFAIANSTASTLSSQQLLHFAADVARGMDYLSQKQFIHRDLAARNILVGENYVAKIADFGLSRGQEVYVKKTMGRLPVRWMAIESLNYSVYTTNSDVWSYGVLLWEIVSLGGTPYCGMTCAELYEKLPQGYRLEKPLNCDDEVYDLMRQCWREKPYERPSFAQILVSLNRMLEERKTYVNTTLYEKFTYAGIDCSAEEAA

SMA-497 [12] = experiment: Anti-clonogenicic activity in mouse SMA-497 cells assessed as reduction in colony formation at 0.1 to 1 uM preincubated for 6 hrs followed by temozolomide addition and measured after 10 days by MTT based clonogenic survival assay; format: functional, cell-based; conditions: dose 0.1-1 µM, time 246.0 hrs
SMA-497 [13] = experiment: Antitumor activity against mouse SMA-497 cells xenografted in VM/Dk mouse assessed as decrease in number of CD31-positive intra-tumoral vessels in tumor at 100 mg/kg,po daily by immunohistochemistry analysis; format: functional, organism-based
SMA-560 [14] = experiment: In vivo inhibition of TIE-2 in VM/Dk mouse xenografted with mouse SMA-560 cells assessed as decrease in TIE-2 expression in brain blood vessels at 100 mg/kg,po daily by immunohistochemistry analysis; format: functional, organism-based
SMA-560 [15] = experiment: Induction of cell cycle arrest in mouse SMA-560 cells assessed as accumulation at G0/G1 phase at 0.1 uM incubated for 72 hrs by propidium iodide/RNase staining based flow cytomtery (Rvb= 71%); format: functional
SMA-497 [16] = experiment: Induction of cell cycle arrest in mouse SMA-497 cells assessed as accumulation at G0/G1 phase at 0.1 uM incubated for 72 hrs by propidium iodide/RNase staining based flow cytomtery (Rvb= 76%); format: functional
SMA-560 [17] = experiment: In vivo inhibition of TIE-2 in VM/Dk mouse xenografted with mouse SMA-560 cells assessed as decrease in TIE-2 expression in brain blood vessels at 100 mg/kg,po daily with 12 Gy irradition after 2days of treatment initiation by immunohistochemistry analysis; format: functional, organism-based
SMA-497 [18] = experiment: Anti-clonogenicic activity in mouse SMA-497 cells assessed as reduction in colony formation at 0.1 to 1 uM preincubated for 6 hrs followed by 1 to 9 Gy irradiation with and measured after 10 days by MTT based clonogenic survival assay; format: functional, cell-based; conditions: dose 0.1-1 µM, time 246.0 hrs
SMA-497 [19] = experiment: Antitumor activity against mouse SMA-497 cells xenografted in VM/Dk mouse assessed as decrease in tumor volume at 100 mg/kg,po daily by H and E staining based microscopy; format: functional, organism-based
SMA-560 [20] = experiment: Induction of cell cycle arrest in mouse SMA-560 cells assessed as accumulation at sub G1 phase at 0.1 uM incubated for 72 hrs by propidium iodide/RNase staining based flow cytomtery (Rvb= 2%); format: functional
SMA-497 [21] = experiment: Anti-clonogenicic activity in mouse SMA-497 cells assessed as reduction in colony formation at 0.001 to 10 uM and measured after 10 days by MTT based clonogenic survival assay; format: functional, cell-based; conditions: dose 0.001-10 µM, time 10.0 day
SMA-497 [22] = experiment: Antitumor activity against mouse SMA-497 cells xenografted in VM/Dk mouse assessed as decrease in tumor volume at 100 mg/kg,po daily with 12 Gy irradition after 2days of treatment initiation by H and E staining based microscopy; format: functional, organism-based
SMA-560 [23] = experiment: Cytotoxicity against mouse SMA-560 cells assessed as reduction in metabolic activity at 0.001 to 100 uM incubated for 72 hrs by MTT assay; format: functional, cell-based; conditions: dose 0.001-100 µM
[24] = Toxicity in C57Bl/6 mouse xenografted with mouse GL261 cells assessed as survival rate at 100 mg/kg,po daily (Rvb=13%); format: organism-based; conditions: in vivo
GL261 [25] = experiment: Antitumor activity against mouse GL261 cells xenografted in C57Bl/6 mouse assessed as decrease in tumor volume at 100 mg/kg,po daily by H and E staining based microscopy; format: functional, organism-based
[26] = Toxicity in VM/Dk mouse xenografted with mouse SMA-560 cells assessed as survival rate at 100 mg/kg,po daily (Rvb=13 to 20%); format: organism-based; conditions: in vivo
SMA-497 [27] = experiment: Induction of apoptosis in mouse SMA-497 cells assessed as live cells at 0.1 uM incubated for 72 hrs by Annexin V-FITC/PI staining based flow cytometric analysis (reference value: 83.4%); format: functional
SMA-497 [28] = experiment: Induction of cell cycle arrest in mouse SMA-497 cells assessed as accumulation at S phase at 0.1 uM incubated for 72 hrs by propidium iodide/RNase staining based flow cytomtery (Rvb= 8%); format: functional

## Cc1cc(C)c(-n2ccn3nc(-c4cccnc4)cc23)cc1NC(=O)c1cc(C#N)cc(S(F)(F)(F)(F)F)c1 [BAY-826]
SMA-497 [1]
  Activity: 0%
Mus musculus
  inhibition: Active
SMA-560 [2]
  Activity: inactive
SMA-560 [3]
  Activity: 28%
[4]
  Kd: 400 pM
SMA-497 [5]
  Activity: Active
GL261 [6]
  Activity: inactive
SMA-497 [7]
  Activity: 10%
GL261 [8]
  Activity: Active
SMA-540
  inhibition: Active
SMA-560 [9]
  Activity: Active
SMA-560 [10]
  Activity: inactive
SMA-560 [11]
  Activity: inactive
Angiopoietin-1 receptor
  EC50: 1300 pM
SMA-497 [12]
  Activity: inactive
SMA-497 [13]
  Activity: inactive
SMA-560 [14]
  inhibition: Active
SMA-560 [15]
  Activity: 67%
SMA-497 [16]
  Activity: 66%
SMA-560 [17]
  inhibition: Active
SMA-497 [18]
  Activity: inactive
SMA-497 [19]
  Activity: inactive
SMA-560 [20]
  Activity: 2%
SMA-497 [21]
  Activity: inactive
SMA-497 [22]
  Activity: inactive
SMA-560 [23]
  Activity: inactive
[24]
  Survival: 15%
GL261 [25]
  Activity: inactive
[26]
  Survival: 15%
SMA-497 [27]
  Activity: 91.4%
SMA-497 [28]
  Activity: 11%
